In patent US10202378B2, “Therapeutic compounds and uses thereof” (GENENTECH, INC., priority 2015, dated 2019):

Key:
TAF1-BD2 = TAF1-BD2 (Homo sapiens, UniProt P21675); test: TAF1-BD2 TR-FRET Binding Assay; conditions: read-out: TAF1-BD2 HTRF IC50
TAF1-BD1 = TAF1-BD1 (Homo sapiens, UniProt P21675); test: TAF1-BD1 TR-FRET Binding Assay; conditions: read-out: TAF1-BD1 HTRF IC50

IC50 (TAF1-BD2) [µM] | IC50 (TAF1-BD1) [µM] | Compound
0.0304 | 0.0936 | Cc1[nH]c2c(=O)n(C)cc(C#CC(C)(C)O)c2c1C(=O)OCC(C)(C)C [Example 150, 2,2-dimethylpropyl 4-(3-hydroxy-3-methyl-but-1-ynyl)-2,6-dimethyl-7-oxo-1H-pyrrolo[2,3-c]pyridine-3-carboxylate]
0.0998 | 0.15 | Cc1[nH]c2c(=O)n(C)cc(C#CC(C)(O)CC#N)c2c1C(=O)OCC(C)C (stereo not drawn) [Example 154, isobutyl 4-(4-cyano-3-hydroxy-3-methyl-but-1-ynyl)-2,6-dimethyl-7-oxo-1H-pyrrolo[2,3-c]pyridine-3-carboxylate]
0.106 | 0.276 | Cc1[nH]c2c(=O)n(C)cc(C#CC(C)(O)CC#N)c2c1C(=O)OC(C)C (stereo not drawn) [Example 156, isopropyl 4-(4-cyano-3-hydroxy-3-methyl-but-1-ynyl)-2,6-dimethyl-7-oxo-1H-pyrrolo[2,3-c]pyridine-3-carboxylate]
0.0502 | 0.112 | Cc1cc([C@](C)(O)C#Cc2cn(C)c(=O)c3[nH]c(C)c(C(=O)OCC(C)C)c23)no1 [Example 158, isobutyl 4-[(3R)-3-hydroxy-3-(5-methylisoxazol-3-yl)but-1-ynyl]-2,6-dimethyl-7-oxo-1H-pyrrolo[2,3-c]pyridine-3-carboxylate]
0.0324 | 0.13 | Cc1[nH]c2c(=O)n(C)cc(C#CC(C)(O)c3ccccc3)c2c1C(=O)OCC(C)C (stereo not drawn) [Example 160, isobutyl 4-(3-hydroxy-3-phenyl-but-1-ynyl)-2,6-dimethyl-7-oxo-1H-pyrrolo[2,3-c]pyridine-3-carboxylate]
0.0273 | 0.283 | Cc1[nH]c2c(=O)n(C)cc(C#CC(C)(C)O)c2c1C(=O)OC(C)(C)CC#N [Example 163, (2-cyano-1,1-dimethyl-ethyl) 4-(3-hydroxy-3-methyl-but-1-ynyl)-2,6-dimethyl-7-oxo-1H-pyrrolo[2,3-c]pyridine-3-carboxylate]

The next lines start with the molecule.

Compound | IC50 (TAF1-BD2) [µM] | IC50 (TAF1-BD1) [µM]
CCCCC(C)(C)OC(=O)c1c(C)[nH]c2c(=O)n(C)cc(C#CC(C)(C)O)c12 [Example 146, 1,1-dimethylpentyl 4-(3-hydroxy-3-methyl-but-1-ynyl)-2,6-dimethyl-7-oxo-1H-pyrrolo[2,3-c]pyridine-3-carboxylate] | 0.0432 | 0.288
Cc1[nH]c2c(=O)n(C)cc(C#CC(C)(C)O)c2c1C(=O)OCC1CCCC1 [Example 148, cyclopentylmethyl 4-(3-hydroxy-3-methyl-but-1-ynyl)-2,6-dimethyl-7-oxo-1H-pyrrolo[2,3-c]pyridine-3-carboxylate] | 0.0237 | 0.0968
CCC(C)(C)OC(=O)c1c(C)[nH]c2c(=O)n(C)cc(C#CC(C)(C)O)c12 [Example 151, 1,1-dimethylpropyl 4-(3-hydroxy-3-methyl-but-1-ynyl)-2,6-dimethyl-7-oxo-1H-pyrrolo[2,3-c]pyridine-3-carboxylate] | 0.0351 | 0.221
Cc1cc([C@](C)(O)C#Cc2cn(C)c(=O)c3[nH]c(C)c(C(=O)OC(C)C)c23)no1 [Example 157, isopropyl 4-[(3R)-3-hydroxy-3-(5-methylisoxazol-3-yl)but-1-ynyl]-2,6-dimethyl-7-oxo-1H-pyrrolo[2,3-c]pyridine-3-carboxylate] | 0.0712 | 0.233
Cc1[nH]c2c(=O)n(C)cc(C#CC(C)(O)c3ccccc3)c2c1C(=O)OC(C)(C)C (stereo not drawn) [Example 162, tert-butyl 4-(3-hydroxy-3-phenyl-but-1-ynyl)-2,6-dimethyl-7-oxo-1H-pyrrolo[2,3-c]pyridine-3-carboxylate] | 0.0544 | 0.318
CC(=O)NCCC(C)(C)OC(=O)c1c(C)[nH]c2c(=O)n(C)cc(C#CC(C)(C)O)c12 [Example 164, (3-acetamido-1,1-dimethyl-propyl) 4-(3-hydroxy-3-methyl-but-1-ynyl)-2,6-dimethyl-7-oxo-1H-pyrrolo[2,3-c]pyridine-3-carboxylate] | 0.0485 | 0.514
